# Measurements from patent publication US7192781B2 (Pharmion Corporation, priority 2004, dated 2007).
# How the values were obtained:
# [1] = Stability of 5-azacytidine in whole blood; conditions: for Mean [5-aza] / % of Time 0: whole blood;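 for all read-outs here: drug level determined in plasma separated from whole blood, extracted with acetonitrile plus internal standard, then quantified by LC/MS/MS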
# [2] = Stability of 5-azacytidine stored in acetonitrile/plasma mixtures at different temperatures; conditions: for % of Fresh Prep / Mean [5-aza]: acetonitrile/plasma mixture
# [3] = Stability of 5-azacytidine stored as an acetonitrile residue at minus 70° C.; conditions: for % of Time 0 / Mean [5-aza]: acetonitrile residue at minus 70° C.
# [4] = [5-aza] 15 ng/mL, Room Temp, 15 mins
# [5] = [5-aza] 15 ng/mL, Room Temp, 30 mins
# [6] = [5-aza] 15 ng/mL, Room Temp, 45 mins
# [7] = [5-aza] 200 ng/mL, Ice, 15 mins
# [8] = [5-aza] 200 ng/mL, Ice, 30 mins
# [9] = [5-aza] 200 ng/mL, Ice, 45 mins
# [10] = [5-aza] 200 ng/mL, Ice, 60 mins
# [11] = [5-aza] 200 ng/mL, Room Temp, 15 mins
# [12] = [5-aza] 200 ng/mL, Room Temp, 30 mins
# [13] = [5-aza] 200 ng/mL, Room Temp, 45 mins
# [14] = [5-aza] 200 ng/mL, Room Temp, 60 mins
# [15] = [5-aza] 30 ng/mL, Freeze-thaw (minus 70° C. for 4 days followed by RT for 5.5 hours)
# [16] = [5-aza] 400 ng/mL, Freeze-thaw (minus 70° C. for 4 days followed by RT for 5.5 hours)
compound,measurement,setting,value
"Nc1ncn([C@@H]2O[C@H](CO)[C@@H](O)[C@H]2O)c(=O)n1 [5-azacytidine, 4-amino-1-β-D-ribofuranosyl-1,3,5-triazin-2(1H)-one]",degradation in whole blood,[1]; room temperature,rapidly degrades
same,degradation in whole blood,"[1]; stored on ice, compared with room temperature",slightly reduced rate
same,Mean [5-aza],"[1]; [5-aza] 15 ng/mL, Ice, 0 mins",16.1 (N = 5) ng/mL
same,% of Time 0,"[1]; [5-aza] 15 ng/mL, Ice, 15 mins",80.7%
same,Mean [5-aza],"[1]; [5-aza] 15 ng/mL, Ice, 15 mins",13.0 (N = 4) ng/mL
same,% of Time 0,"[1]; [5-aza] 15 ng/mL, Ice, 30 mins",77.6%
same,Mean [5-aza],"[1]; [5-aza] 15 ng/mL, Ice, 30 mins",12.5 (N = 3) ng/mL
same,% of Time 0,"[1]; [5-aza] 15 ng/mL, Ice, 45 mins",70.8%
same,Mean [5-aza],"[1]; [5-aza] 15 ng/mL, Ice, 45 mins",11.4 (N = 4) ng/mL
same,% of Time 0,"[1]; [5-aza] 15 ng/mL, Ice, 60 mins",71.4%
same,Mean [5-aza],"[1]; [5-aza] 15 ng/mL, Ice, 60 mins",11.5 (N = 5) ng/mL
same,Mean [5-aza],"[1]; [5-aza] 15 ng/mL, Room Temp, 0 mins",16.1 (N = 5) ng/mL
same,% of Time 0,[1]; [4],82.6%
same,Mean [5-aza],[1]; [4],13.3 (N = 5) ng/mL
same,% of Time 0,[1]; [5],71.4%
same,Mean [5-aza],[1]; [5],11.5 (N = 5) ng/mL
same,% of Time 0,[1]; [6],64.0%
same,Mean [5-aza],[1]; [6],10.3 (N = 2) ng/mL
same,Mean [5-aza],"[1]; [5-aza] 200 ng/mL, Ice, 0 mins",152.0 (N = 5) ng/mL
same,% of Time 0,[1]; [7],79.6%
same,Mean [5-aza],[1]; [7],121.0 (N = 5) ng/mL
same,% of Time 0,[1]; [8],73.0%
same,Mean [5-aza],[1]; [8],111.0 (N = 5) ng/mL
same,% of Time 0,[1]; [9],72.4%
same,Mean [5-aza],[1]; [9],110.0 (N = 5) ng/mL
same,% of Time 0,[1]; [10],57.2%
same,Mean [5-aza],[1]; [10],87.0 (N = 5) ng/mL
same,Mean [5-aza],"[1]; [5-aza] 200 ng/mL, Room Temp, 0 mins",152.0 (N = 5) ng/mL
same,% of Time 0,[1]; [11],73.4%
same,Mean [5-aza],[1]; [11],111.6 (N = 5) ng/mL
same,% of Time 0,[1]; [12],57.8%
same,Mean [5-aza],[1]; [12],87.9 (N = 5) ng/mL
same,% of Time 0,[1]; [13],37.3%
same,Mean [5-aza],[1]; [13],56.7 (N = 5) ng/mL
same,% of Time 0,[1]; [14],21.7%
same,Mean [5-aza],[1]; [14],33.0 (N = 5) ng/mL
same,time stable in acetonitrile layer over plasma layer,[2]; about minus 70° C.,at least 4 days
same,time stable in acetonitrile layer over plasma layer (acetonitrile/plasma solution),"[2]; about room temperature, stable = within ±20% of freshly prepared sample",at least 3 hours
same,% of Fresh Prep,"[2]; [5-aza] 30 ng/mL, 3 hours RT",98.7%
same,Mean [5-aza],"[2]; [5-aza] 30 ng/mL, 3 hours RT",29.8 (N = 6) ng/mL
same,% of Fresh Prep,[2]; [15],103.3%
same,Mean [5-aza],[2]; [15],31.2 (N = 6) ng/mL
same,Mean [5-aza],"[2]; [5-aza] 30 ng/mL, Fresh prep.",30.2 (N = 6) ng/mL
same,% of Fresh Prep,"[2]; [5-aza] 400 ng/mL, 3 hours RT",89.4%
same,Mean [5-aza],"[2]; [5-aza] 400 ng/mL, 3 hours RT",371 (N = 6) ng/mL
same,% of Fresh Prep,[2]; [16],88.4%
same,Mean [5-aza],[2]; [16],367 (N = 6) ng/mL
same,Mean [5-aza],"[2]; [5-aza] 400 ng/mL, Fresh prep.",415 (N = 6) ng/mL
same,time stable in acetonitrile/plasma solution,"[2]; minus 70° C. with one freeze-thaw cycle of 5.5 hours at room temperature, stable = within ±20% of freshly prepared sample",at least 4 days
same,time stable as acetonitrile residue,"[3]; about minus 70° C., stable = within ±20% of freshly prepared sample",at least 14 months
same,% of Time 0,"[3]; [5-aza] 30 ng/mL, 4 Weeks",90.0%
same,Mean [5-aza],"[3]; [5-aza] 30 ng/mL, 4 Weeks",27.1 (N = 6) ng/mL
same,% of Time 0,"[3]; [5-aza] 30 ng/mL, 6 Months",105.3%
same,Mean [5-aza],"[3]; [5-aza] 30 ng/mL, 6 Months",31.7 (N = 6) ng/mL
same,% of Time 0,"[3]; [5-aza] 30 ng/mL, 7 Days",93.7%
same,Mean [5-aza],"[3]; [5-aza] 30 ng/mL, 7 Days",28.2 (N = 6) ng/mL
same,% of Time 0,"[3]; [5-aza] 30 ng/mL, 14 Days",97.3%
same,Mean [5-aza],"[3]; [5-aza] 30 ng/mL, 14 Days",29.3 (N = 6) ng/mL
same,% of Time 0,"[3]; [5-aza] 30 ng/mL, 14 Months",111.0%
same,Mean [5-aza],"[3]; [5-aza] 30 ng/mL, 14 Months",33.4 (N = 5) ng/mL
same,% of Time 0,"[3]; [5-aza] 30 ng/mL, 15 Weeks",100.7%
same,Mean [5-aza],"[3]; [5-aza] 30 ng/mL, 15 Weeks",30.3 (N = 6) ng/mL
same,Mean [5-aza],"[3]; [5-aza] 30 ng/mL, Time 0",30.1 (N = 6) ng/mL
same,% of Time 0,"[3]; [5-aza] 400 ng/mL, 4 Weeks",95.6%
same,Mean [5-aza],"[3]; [5-aza] 400 ng/mL, 4 Weeks",365 (N = 5) ng/mL
same,% of Time 0,"[3]; [5-aza] 400 ng/mL, 6 Months",97.4%
same,Mean [5-aza],"[3]; [5-aza] 400 ng/mL, 6 Months",372 (N = 5) ng/mL
same,% of Time 0,"[3]; [5-aza] 400 ng/mL, 7 Days",98.7%
same,Mean [5-aza],"[3]; [5-aza] 400 ng/mL, 7 Days",377 (N = 6) ng/mL
same,% of Time 0,"[3]; [5-aza] 400 ng/mL, 14 Days",91.6%
same,Mean [5-aza],"[3]; [5-aza] 400 ng/mL, 14 Days",350 (N = 6) ng/mL
same,% of Time 0,"[3]; [5-aza] 400 ng/mL, 14 Months",115.9%
same,Mean [5-aza],"[3]; [5-aza] 400 ng/mL, 14 Months",443 (N = 5) ng/mL
same,% of Time 0,"[3]; [5-aza] 400 ng/mL, 15 Weeks",103.9%
same,Mean [5-aza],"[3]; [5-aza] 400 ng/mL, 15 Weeks",397 (N = 6) ng/mL
same,Mean [5-aza],"[3]; [5-aza] 400 ng/mL, Time 0",382 (N = 6) ng/mL
same,"measured 5-azacytidine concentration, deviation from initial concentration in the plasma sample","[3]; samples prepared according to the methods, LC/MS/MS",≤ 20%
